Experimental data from patent US20240285552A1 (priority 2020, published 2024).
pIC50: −log10 of the molar value. Where a name gives a salt, the structure may show the parent alone. Read-outs that look alike come from different tables or passages of the source.

How the values were obtained:
SARS-CoV-2 USA_WA1/2020 = details: hamster; for SARS-CoV-2 genome load, N2 gRNA, lungs / SARS-CoV-2 genome load, N2 gRNA, trachea / active replication load higher than Group 3, E sgRNA, lungs / active replication load, E sgRNA, lungs / active replication load, E sgRNA, nasal turbinate / active replication load, E sgRNA, trachea / genome load higher than Group 3, N2 gRNA, lungs / replication load higher than Group 3, E sgRNA, trachea / viral load higher than Group 3, N2 gRNA, trachea: Day 4; for serum IL-6 levels versus Group 3: Day 4, ELISA, P<0.05; for serum TNF-α versus Group 3: Day −1, Day 2 (P<0.05), Day 4 (P<0.001); for serum IL-10 levels between groups: Days −1, 2, 4; for incidence and severity of microscopic lesions versus vehicle control: lung histopathology; for lung viral load by TCID50 assay versus vehicle control: lung samples Day 4; for SARS-CoV-2 genome load, N2 gRNA, nasal turbinate / gross lesions in the lung: necropsy Day 4; for Peak viral load, N2 gRNA, pharyngeal swabs / Peak viral replication load, E sgRNA, pharyngeal swabs: peak Day 2 (AMB), Day 1 (BHH); for Peak viral replication load, E sgRNA, rectal swabs: peak Day 1 (AMB), Day 2 (BHH); for Peak viral load, N2 gRNA, rectal swabs: peak on Day 2
in vitro = details: human, Cytotoxicity CC50, A549 cells, 72 hours
[1] = system: SARS CoV-2 nanoluciferase reporter virus; assay: microbe, parasite or virus in culture; format: cell-based; details: for pIC50: read-out: IC50, viral replication, Nanoluciferase Reporter Virus Assay

SMILES: Nc1c(Br)cc(Br)cc1CN[C@H]1CC[C@H](O)CC1 [AMB, 4-[(2-amino-3,5-dibromophenyl)methylamino]cyclohexan-1-ol; hydrochloride]
- Conc. at Max. % Viability (A549 cells): 2.34 µM
- Conc. at Min. % Viability (A549 cells): 300 µM
- Max. Viability (A549 cells): 100%
- Min. Viability (A549 cells): 0.14%
- CC50 (A549 cells; read-out: Cytotoxicity CC50, 72 hours, hydrochloride): 137 µM
- Overall Gmean Days 1-4, E sgRNA, rectal swabs (SARS-CoV-2 USA_WA1/2020): 4.21 copies/swab
- Overall Gmean Days 1-4 higher than Group 3, E sgRNA, rectal swabs (SARS-CoV-2 USA_WA1/2020): 3 fold
- Peak viral load versus Group 3, N2 gRNA, rectal swabs (SARS-CoV-2 USA_WA1/2020): similar
- Peak viral replication load higher than Group 3, E sgRNA, rectal swabs (SARS-CoV-2 USA_WA1/2020): 6 fold
- SARS-CoV-2 genome load, N2 gRNA, lungs (SARS-CoV-2 USA_WA1/2020): 4.03E+09 copies/gram
- SARS-CoV-2 genome load, N2 gRNA, trachea (SARS-CoV-2 USA_WA1/2020): 6.24E+08 copies/gram
- active replication load higher than Group 3, E sgRNA, lungs (SARS-CoV-2 USA_WA1/2020): 2 fold
- active replication load, E sgRNA, lungs (SARS-CoV-2 USA_WA1/2020): 2.78E+07 copies/gram
- active replication load, E sgRNA, nasal turbinate (SARS-CoV-2 USA_WA1/2020): 1.09E+08 copies/gram
- active replication load, E sgRNA, trachea (SARS-CoV-2 USA_WA1/2020): 1.11E+06 copies/gram
- genome load higher than Group 3, N2 gRNA, lungs (SARS-CoV-2 USA_WA1/2020): 2 fold
- replication load higher than Group 3, E sgRNA, trachea (SARS-CoV-2 USA_WA1/2020): similar
- viral load higher than Group 3, N2 gRNA, trachea (SARS-CoV-2 USA_WA1/2020): similar
- serum IL-6 levels versus Group 3 (SARS-CoV-2 USA_WA1/2020): significantly lower
- serum TNF-α versus Group 3 (SARS-CoV-2 USA_WA1/2020): significantly low
- serum IL-10 levels between groups (SARS-CoV-2 USA_WA1/2020): No significance difference
- tolerability of administered doses (SARS-CoV-2 USA_WA1/2020; in vivo): tolerated the administered doses well
- incidence and severity of microscopic lesions versus vehicle control (SARS-CoV-2 USA_WA1/2020): similar
- lung viral load by TCID50 assay versus vehicle control (SARS-CoV-2 USA_WA1/2020): No difference
- SARS-CoV-2 genome load, N2 gRNA, nasal turbinate (SARS-CoV-2 USA_WA1/2020): 3.57E+10 copies/gram
- gross lesions in the lung (SARS-CoV-2 USA_WA1/2020): reduced gross lesions in the lung
- Overall Gmean Days 1-4, E sgRNA, pharyngeal swabs (SARS-CoV-2 USA_WA1/2020; AMB 500, BHH 200 mg/kg/day PO): 1.89E+04 copies/swab
- Overall Gmean Days 1-4 lower than Group 3, E sgRNA, pharyngeal swabs (SARS-CoV-2 USA_WA1/2020; AMB 500, BHH 200 mg/kg/day PO): 5 fold
- Overall Gmean Days 1-4 viral load lower than Group 3, N2 gRNA, pharyngeal swabs (SARS-CoV-2 USA_WA1/2020; AMB 500, BHH 200 mg/kg/day PO): 4 fold
- Overall Gmean viral load Days 1-4, N2 gRNA, pharyngeal swabs (SARS-CoV-2 USA_WA1/2020; AMB 500, BHH 200 mg/kg/day PO): 4.93E+07 copies/swab
- Peak viral load lower than vehicle (Group 3), N2 gRNA, pharyngeal swabs (SARS-CoV-2 USA_WA1/2020; AMB 500, BHH 200 mg/kg/day PO): 16 fold
- Peak viral replication load lower than Group 3, E sgRNA, pharyngeal swabs (SARS-CoV-2 USA_WA1/2020; AMB 500, BHH 200 mg/kg/day PO): 34 fold
- Peak viral load, N2 gRNA, pharyngeal swabs (SARS-CoV-2 USA_WA1/2020; AMB 500, BHH 200 mg/kg/day PO): 9.01E+06 copies/swab
- Peak viral replication load, E sgRNA, rectal swabs (SARS-CoV-2 USA_WA1/2020): 20.15 copies/swab
- Peak viral replication load, E sgRNA, pharyngeal swabs (SARS-CoV-2 USA_WA1/2020): 2.79E+04 copies/swab
- Peak viral load, N2 gRNA, rectal swabs (SARS-CoV-2 USA_WA1/2020): 9.75E+04 copies/swab
- CC50 at 72 h (in vitro): 137 µM
- Concentration at Maximum % Inhibition ([1]; A549-ACE2, NLRV): 300 µM
- Maximum Inhibition ([1]; A549-ACE2, NLRV): 99.73%
- pIC50 ([1]; Severe acute respiratory syndrome coronavirus 2, A549, 72 h): 4.33
- pIC50 ([1]; hydrochloride): 4.32

SMILES: CN(Cc1cc(Br)cc(Br)c1N)C1CCCCC1 [BHH, Bromhexine hydrochloride]
- Overall Gmean Days 1-4, N2 gRNA, rectal swabs (SARS-CoV-2 USA_WA1/2020): 1.00E+05 copies/swab
- Overall Gmean Days 1-4 higher than Group 3, N2 gRNA, rectal swabs (SARS-CoV-2 USA_WA1/2020): 2 fold
- Peak viral load versus Group 3, N2 gRNA, rectal swabs (SARS-CoV-2 USA_WA1/2020): similar
- SARS-CoV-2 genome load, N2 gRNA, lungs (SARS-CoV-2 USA_WA1/2020): 6.20E+09 copies/gram
- SARS-CoV-2 genome load, N2 gRNA, trachea (SARS-CoV-2 USA_WA1/2020): 1.21E+09 copies/gram
- active replication load higher than Group 3, E sgRNA, lungs (SARS-CoV-2 USA_WA1/2020): 3 fold
- active replication load, E sgRNA, lungs (SARS-CoV-2 USA_WA1/2020): 4.41E+07 copies/gram
- active replication load, E sgRNA, nasal turbinate (SARS-CoV-2 USA_WA1/2020): 1.67E+08 copies/gram
- active replication load, E sgRNA, trachea (SARS-CoV-2 USA_WA1/2020): 2.58E+06 copies/gram
- genome load higher than Group 3, N2 gRNA, lungs (SARS-CoV-2 USA_WA1/2020): 3 fold
- replication load higher than Group 3, E sgRNA, trachea (SARS-CoV-2 USA_WA1/2020): 2 fold
- viral load higher than Group 3, N2 gRNA, trachea (SARS-CoV-2 USA_WA1/2020): 2 fold
- serum IL-6 levels versus Group 3 (SARS-CoV-2 USA_WA1/2020): significantly lower
- serum TNF-α versus Group 3 (SARS-CoV-2 USA_WA1/2020): significantly low
- serum IL-10 levels between groups (SARS-CoV-2 USA_WA1/2020): No significance difference
- incidence and severity of microscopic lesions versus vehicle control (SARS-CoV-2 USA_WA1/2020): similar
- lung viral load by TCID50 assay versus vehicle control (SARS-CoV-2 USA_WA1/2020): No difference
- SARS-CoV-2 genome load, N2 gRNA, nasal turbinate (SARS-CoV-2 USA_WA1/2020): 3.57E+10 copies/gram
- gross lesions in the lung (SARS-CoV-2 USA_WA1/2020): reduced gross lesions in the lung
- Overall Gmean Days 1-4, E sgRNA, pharyngeal swabs (SARS-CoV-2 USA_WA1/2020; AMB 500, BHH 200 mg/kg/day PO): 4.82E+04 copies/swab
- Overall Gmean Days 1-4 lower than Group 3, E sgRNA, pharyngeal swabs (SARS-CoV-2 USA_WA1/2020; AMB 500, BHH 200 mg/kg/day PO): 2 fold
- Overall Gmean Days 1-4 viral load lower than Group 3, N2 gRNA, pharyngeal swabs (SARS-CoV-2 USA_WA1/2020; AMB 500, BHH 200 mg/kg/day PO): 2 fold
- Overall Gmean viral load Days 1-4, N2 gRNA, pharyngeal swabs (SARS-CoV-2 USA_WA1/2020; AMB 500, BHH 200 mg/kg/day PO): 4.93E+07 copies/swab
- Peak viral load lower than vehicle (Group 3), N2 gRNA, pharyngeal swabs (SARS-CoV-2 USA_WA1/2020; AMB 500, BHH 200 mg/kg/day PO): 3 fold
- Peak viral replication load lower than Group 3, E sgRNA, pharyngeal swabs (SARS-CoV-2 USA_WA1/2020; AMB 500, BHH 200 mg/kg/day PO): 4 fold
- tolerability of administered doses (SARS-CoV-2 USA_WA1/2020; AMB 500, BHH 200 mg/kg/day PO, up to 5 days): tolerated the administered doses well
- Peak viral load, N2 gRNA, pharyngeal swabs (SARS-CoV-2 USA_WA1/2020; AMB 500, BHH 200 mg/kg/day PO): 4.93E+07 copies/swab
- Peak viral replication load, E sgRNA, rectal swabs (SARS-CoV-2 USA_WA1/2020): 4.29 copies/swab
- Peak viral replication load, E sgRNA, pharyngeal swabs (SARS-CoV-2 USA_WA1/2020): 2.65E+05 copies/swab
- Peak viral load, N2 gRNA, rectal swabs (SARS-CoV-2 USA_WA1/2020): 1.54E+05 copies/swab
